According to patent publication US20130059787A1, “METHODS OF USING HUMAN PROTEIN KINASE C DELTA VIII AS A BIOMARKER” (UNITED STATES DEPARTMENT OF VETERAN AFFAIRS, priority 2010, published 2013):

System: 5′ splice site II of PKCδ exon 10
Test: pSPL3_PKCδ splicing minigene in NT2 cells, RT-PCR
Format: cell-based, human
Settings: RA about 10 μM, 24 h
Protocol: (a) schematic represents PKCδ pre-mRNA exon 10 and flanking introns cloned into pSPL3 splicing vector between the SD and SA exons. The resulting minigene is referred to as pSPL3_PKCδ minigene. Arrows indicate position of primers used in RT-PCR analysis. (b) pSPL3_PKCδ minigene and pSPL3 empty vector were transfected overnight, and then the cells were treated with or without about 10 μM RA for about 24 h. Total RNA was extracted and RT-PCR performed using primers as described above. Expected products are SD-SA: constitutive splicing; SSI: usage of 5′ splice site I; SSII: usage of 5′ splice site II. (c) About 2 μg of SC35 or SF2/ASF was co-transfected along with the pSPL3_PKCδ splicing minigene. […] Graphs represent percent exon inclusion calculated as SS II/(SS II+SSI)×100 in the samples and are representative of four experiments performed separately. […]
Splicing minigenes are advantageous to identify cis-elements on the pre-mRNA involved in regulated alternative splicing. […] Since the human PKCδ splice variants used alternative 5′ splice sites as determined previously, exon 10 of PKCδ pre-mRNA along with its flanking 3′ and 5′ intronic sequences was cloned (as described under “Experimental Procedures”) in the multiple cloning site (MCS) between the splice donor (SD) and splice acceptor (SA) exons of pSPL3, a vector developed to study splicing events (schematic shown in FIG. 10a). […]

CC1=C(/C=C/C(C)=C/C=C/C(C)=C/C(=O)O)C(C)(C)CCC1 [RA, all-trans-retinoic acid]
utilization of 5′ splice site II of PKCδ exon 10 in pSPL3_PKCδ minigene: increased utilization
